Test [1] concerns adult rat ventricular myocytes. Kind of test: Cardiomyocyte contractility assay (fractional shortening, IonOptix). Conditions: Ventricular myocyte, 5 min, 5 minutes of compound; for inhibition at 0.3 µM: 0.3 uM compound; for inhibition at 1 µM: 1.0 uM compound. The test is classed as cell-based. How it is done: Contractility of adult rat ventricular myocytes is determined by edge detection with an IonOptix contractility system. Aliquots of myocytes in Tyrode buffer (137 mM NaCl, 3.7 mM KCL, 0.5 mM MgCl2, 1.5 mM CaCl2, 4 mM HEPES, 11 mM glucose) are placed in a perfusion chamber (Series 20 RC-27NE; Warner Instruments), allowed to adhere to the coverslip, and then perfused with 37° C. Tyrode buffer. Myocytes are filed stimulated at 1 Hz and 10V. Only myocytes with clear striations, quiescent prior to pacing, with a cell length of 120-180 microns, a basal fractional shortening equal to 3-8% of the cell length, and a contraction velocity greater than 100 microns per second are used for contractility experiments. To determine the response to compounds, myocytes are first perfused for 60 seconds with Tyrodes buffer followed by 5 minutes of compound and a 140 second washout with Tyrodes buffer. Data is continuously recorded using IonOptix software. Contractility data is analyzed using Ionwizard software (IonOptix). For each cell, 10-20 contractility transients were averaged and compared under basal (no compound) and compound-treated conditions. Compound activity is measured by effects on fractional shortening (FS), where fractional shortening is the ratio of the peak length of the cell at contraction divided by the basal cell length normalized to 100% for an untreated cell.

In test [2] the test system is cardiac contractility in rat. Kind of test: Acute pharmacodynamic effect in rat (echocardiographic fractional shortening). The test is classed as in vivo. The note with it: male Sprague-Dawley rats, single dose 4 mg/kg by oral gavage, percent reduction of baseline. How it is done: Representative compounds were tested for their ability to modulate cardiac contractility in rat as a measure of in vivo target engagement. Fractional shortening, a measure of contractility, was determined by noting the change in the diameter of the left ventricle at the end of systole/contraction (LVESd) relative to diastole/relaxation (LVEDd) and expressing this change as the ratio FS=(LVEDd−LVESd)/LVEDd. Fed male Sprague-Dawley rats were lightly anesthetized with isofluorane and baseline fractional shortening was measured in the parasternal position using transthoracic echocardiography (TTE). Following this measurement, animals were recovered and received a single dose of compound (4 mg/kg) by oral gavage. At three hours post-dose, second and third echocardiograms were collected under light anesthesia to determine drug effects on contractility. Effects are represented in Table 5 as a percent reduction of baseline fractional shortening.

In the next test the target is T1, bovine cardiac myosin (Bos taurus, UniProt Q9BE39).
T1 construct: The source of cardiac myosin was from bovine heart in the form of skinned myofibrils; from tissue; host or cells: bovine heart, skinned myofibrils
Kind of test: Myosin inhibition assay (PK/LDH-coupled ATPase, bovine cardiac myofibrils). The test is classed as biochemical. Conditions: bovine cardiac myofibrils.

[3] abbreviates: calcium giving 50% activation (pCa50), read-out: Biochemical Activity (pCa50).
The mark [4] stands for this setting: calcium giving 75% activation (pCa75), read-out: Biochemical Activity (pCa75).

Like-named read-outs stand apart in the source and are kept apart here.

T1 sequence (Q9BE39 whole entry): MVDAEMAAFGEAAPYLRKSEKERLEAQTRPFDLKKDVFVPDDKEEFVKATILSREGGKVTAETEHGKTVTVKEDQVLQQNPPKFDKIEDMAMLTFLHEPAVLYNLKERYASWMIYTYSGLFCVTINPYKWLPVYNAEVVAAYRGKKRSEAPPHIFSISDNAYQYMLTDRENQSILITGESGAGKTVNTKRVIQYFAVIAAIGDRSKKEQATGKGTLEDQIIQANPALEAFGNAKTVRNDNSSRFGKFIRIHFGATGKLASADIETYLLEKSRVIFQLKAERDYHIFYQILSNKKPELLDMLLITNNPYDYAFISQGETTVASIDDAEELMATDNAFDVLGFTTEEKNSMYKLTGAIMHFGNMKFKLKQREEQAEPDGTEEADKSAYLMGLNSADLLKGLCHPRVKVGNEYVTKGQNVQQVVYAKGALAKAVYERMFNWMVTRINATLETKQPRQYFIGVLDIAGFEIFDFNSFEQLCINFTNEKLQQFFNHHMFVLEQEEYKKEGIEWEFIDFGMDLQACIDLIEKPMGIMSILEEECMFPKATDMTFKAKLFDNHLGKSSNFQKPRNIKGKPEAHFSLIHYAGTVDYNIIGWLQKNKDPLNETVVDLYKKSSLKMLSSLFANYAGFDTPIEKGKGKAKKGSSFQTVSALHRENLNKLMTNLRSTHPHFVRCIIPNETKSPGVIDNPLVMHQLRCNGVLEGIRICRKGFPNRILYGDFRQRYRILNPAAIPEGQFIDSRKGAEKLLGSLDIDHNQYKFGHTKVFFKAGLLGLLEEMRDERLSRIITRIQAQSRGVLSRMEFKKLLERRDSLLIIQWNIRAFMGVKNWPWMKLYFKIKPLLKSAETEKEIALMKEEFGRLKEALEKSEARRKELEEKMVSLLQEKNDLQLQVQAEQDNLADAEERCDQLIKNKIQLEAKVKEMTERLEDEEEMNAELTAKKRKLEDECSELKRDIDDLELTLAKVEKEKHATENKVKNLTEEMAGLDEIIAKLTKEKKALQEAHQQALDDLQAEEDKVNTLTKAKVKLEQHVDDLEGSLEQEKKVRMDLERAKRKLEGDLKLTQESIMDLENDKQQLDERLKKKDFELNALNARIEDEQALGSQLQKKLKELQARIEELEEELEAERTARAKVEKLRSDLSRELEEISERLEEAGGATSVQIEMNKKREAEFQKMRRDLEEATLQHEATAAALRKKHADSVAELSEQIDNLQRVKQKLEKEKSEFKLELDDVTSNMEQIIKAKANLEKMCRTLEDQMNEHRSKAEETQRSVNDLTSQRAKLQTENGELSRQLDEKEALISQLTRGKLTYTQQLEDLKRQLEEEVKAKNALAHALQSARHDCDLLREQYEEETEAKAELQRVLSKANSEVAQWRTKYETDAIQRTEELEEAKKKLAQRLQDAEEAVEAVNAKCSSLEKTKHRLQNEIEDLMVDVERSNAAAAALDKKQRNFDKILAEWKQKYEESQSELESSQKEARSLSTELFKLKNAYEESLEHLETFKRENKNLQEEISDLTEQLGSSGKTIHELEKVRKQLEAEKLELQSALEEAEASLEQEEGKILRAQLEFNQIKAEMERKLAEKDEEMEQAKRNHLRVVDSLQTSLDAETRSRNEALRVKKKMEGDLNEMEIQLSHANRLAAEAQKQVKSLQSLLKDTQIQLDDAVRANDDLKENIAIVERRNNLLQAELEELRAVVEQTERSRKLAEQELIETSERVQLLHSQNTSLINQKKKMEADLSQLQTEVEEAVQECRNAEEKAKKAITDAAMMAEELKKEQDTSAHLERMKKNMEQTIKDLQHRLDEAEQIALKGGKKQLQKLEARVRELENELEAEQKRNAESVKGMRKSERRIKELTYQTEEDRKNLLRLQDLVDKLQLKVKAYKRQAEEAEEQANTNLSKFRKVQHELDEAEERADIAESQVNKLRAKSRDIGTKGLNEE
T1 sequence (P85100 whole entry partner): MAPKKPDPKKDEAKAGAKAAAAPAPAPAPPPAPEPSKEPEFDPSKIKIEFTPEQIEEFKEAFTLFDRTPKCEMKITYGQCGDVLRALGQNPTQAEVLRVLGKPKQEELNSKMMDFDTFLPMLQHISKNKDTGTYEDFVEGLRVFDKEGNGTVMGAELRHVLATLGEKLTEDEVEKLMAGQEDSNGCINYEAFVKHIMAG
T1 sequence (Q3SZE5 whole entry partner): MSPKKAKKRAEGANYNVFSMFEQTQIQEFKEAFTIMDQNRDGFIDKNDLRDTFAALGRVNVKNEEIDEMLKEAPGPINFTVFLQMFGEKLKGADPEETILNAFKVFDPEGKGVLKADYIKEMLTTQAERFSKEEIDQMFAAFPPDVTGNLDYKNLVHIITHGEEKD
Method for bovine cardiac myosin: Small molecule agents were assessed for their ability to inhibit the enzymatic activity of bovine cardiac myosin using a biochemical assay that couples the release of ADP (adenosine diphosphate) from cardiac myosin to an enzymatic coupling system consisting of pyruvate kinase and lactate dehydrogenase (PK/LDH) and monitoring the absorbance decrease of NADH (at 340 nm) as a function of time. PK converts ADP to ATP (adenosine triphosphate) by converting PEP (phosphoenolpyruvate) to pyruvate. Pyruvate is then converted to lactate by LDH by converting NADH (nicotinamide adenine dinucleotide) to NAD (oxidized nicotinamide adenine dinucleotide). The source of cardiac myosin was from bovine heart in the form of skinned myofibrils. Prior to testing small molecule agents, the bovine myofibrils were assessed for their calcium responsiveness and the calcium concentration that achieves either a 50% (pCa50) or 75% (pCa75) activation of the myofibril system was chosen as the final condition for assessing the inhibitory activity of the small molecule agents. All enzymatic activity was measured in a buffered solution containing 12 mM PIPES (piperazine-N,N′-bis(2-ethanesulfonic acid), 2 mM magnesium chloride at pH 6.8 (PM 12 buffer). Final assay conditions were 1 mg/mL of bovine cardiac myofibrils, 0.4 mM PK/LDH, 50 uM ATP, 0.1 mg/mL BSA (bovine serum albumin), 10 ppm antifoam, 1 mM DTT, 0.5 mM NADH, 1.5 mM PEP at the desired free calcium concentration required to achieve either 50% or 75% activation of the myofibrils.
A dilution series of compound was created in DMSO such that the final desired concentration of compound would be achieved in a volume of 100 μL with a fixed DMSO concentration of 2% (v/v). Typically 2 μL of the dilution series were added to 96 well plate to achieve an 8 or 12 point dose response. Following the addition of 50 μL of a solution containing bovine cardiac myofibrils, PK/LDH and a solution of calcium (that achieved the desired activation), the enzymatic reaction was started with the addition of 50 μL of a solution containing ATP, PEP and NADH. The reaction progress was followed in a Molecular Devices M5e plate reader at ambient temperature using clear half area plates. The plate reader was configured to read absorbance at 340 nm in kinetics mode for 15 minutes. Data were recorded as the slope of the absorbance response to time. The slopes of the absorbance response as a function of time were normalized to slopes on the plate containing DMSO. This normalized rate was then plotted as a function of small molecule concentration and the data was fitted to a four-parameter fit using GraphPad Prism. The midpoint of this plot is the 1050 and is the concentration at which fifty percent of the total response is inhibited.

For orientation: inhibition means the percentage by which the read-out fell short of the control. The low end stands for a response near the control, the high end for a response far below the control. Regarding `CC(C)n1c(=O)cc(N[C@@H](C)c2ccccc2)[nH]c1=O` [Compound 1, (S)-3-Isopropyl-6-((1-phenylethyl)amino) pyrimidine-2,4(1H,3H)-dione], in test [1], the inhibition at 0.3 µM was in the range of 33 to 66% and the inhibition at 1 µM is over 66%. In test [2], the “% Reduction in Fractional Shortening 3 h post-dose” value is “+++ (+++ presents a relative change in fractional shortening greater than 30%)”.

For the compound `C[C@H](Nc1cc(=O)n(C2CCC2)c(=O)[nH]1)c1ccccc1` [Compound 69, (S)-3-cyclobutyl-6-((1-phenylethyl)amino)pyrimidine-2,4(1H,3H)-dione], the IC50 was under 1000 nM on bovine cardiac myosin (setting [3]) and 1000 to 15000 nM at bovine cardiac myosin (setting [4]). In test [2], the “% Reduction in Fractional Shortening 3 h post-dose” value was “+ (+ represents a relative change in fractional shortening less than 15%)”.

Turning to `CC(C)n1c(=O)cc(N[C@H](C)c2ccccc2)[nH]c1=O` [Compound 19R], in test [1], the inhibition at 1 µM is under 33%.

With `C[C@H](Nc1cc(=O)n(C2(C)CC2)c(=O)[nH]1)c1ccccc1` [Compound 71, (S)-3-(1-methylcyclopropyl)-6-((1-phenylethyl)amino)pyrimidine-2,4(1H,3H)-dione], the IC50 at bovine cardiac myosin (setting [3]) was under 1000 nM. Further, the “% Reduction in Fractional Shortening 3 h post-dose” value in test [2] is recorded as “+++ (+++ presents a relative change in fractional shortening greater than 30%)”.

As for `CC(C)n1c(=O)[nH]c(N[C@@H](C)c2ccccc2)c(F)c1=O` [Compound 2, (S)-5-Fluoro-3-isopropyl-6-((1-phenylethyl)amino)pyrimidine-2,4(1H,3H)-dione], at bovine cardiac myosin (setting [4]), the IC50 was 1000 to 15000 nM. In test [1], the inhibition at 0.3 µM lay in the range of 33 to 66% and the inhibition at 1 µM was over 66%.

Regarding `C[C@H](Nc1cc(=O)n(-c2ccccc2)c(=O)[nH]1)c1ccccc1` [Compound 45], the IC50 at bovine cardiac myosin (setting [3]) and on bovine cardiac myosin (setting [4]) was under 1000 nM each time. The “% Reduction in Fractional Shortening 3 h post-dose” value in test [2] is “+ (+ represents a relative change in fractional shortening less than 15%)”.

`C[C@H](Nc1cc(=O)n(C2CCN(S(C)(=O)=O)CC2)c(=O)[nH]1)c1ccccc1` [Compound 12, (S)-3-(1-(methylsulfonyl)piperidin-4-yl)-6-(1-phenylethylamino)pyrimidine-2,4(1H,3H)-dione]: the IC50 at bovine cardiac myosin (setting [4]) is under 1000 nM. The same compound came in with an inhibition at 1 µM in test [1] of 33 to 66%.

`CC(C)n1c(=O)cc(N[C@@H](C)c2ccccc2C(F)(F)F)[nH]c1=O` [Compound 70, (S)-3-isopropyl-6-((1-(2-(trifluoromethyl)phenyl)ethyl)amino) pyrimidine-2,4(1H,3H)-dione]: the IC50 at bovine cardiac myosin (setting [4]) lay within 1000 to 15000 nM. For the same compound, the “% Reduction in Fractional Shortening 3 h post-dose” value in test [2] is “++ (++ represents a relative change in fractional shortening between 15-30%)”.

For the compound `C[C@H](Nc1cc(=O)n(-c2cc(F)cc(F)c2)c(=O)[nH]1)c1ccccc1` [Compound 49, (S)-3-(3,5-difluorophenyl)-6-((1-phenylethyl)amino)pyrimidine-2,4(1H,3H)-dione], the IC50 on bovine cardiac myosin (setting [3]) and at bovine cardiac myosin (setting [4]) was under 1000 nM throughout. In addition, in test [2], the “% Reduction in Fractional Shortening 3 h post-dose” value is listed as “+++ (+++ presents a relative change in fractional shortening greater than 30%)”.

Turning to `CC(C)n1c(=O)cc(N[C@@H](C)c2cccc(F)c2)[nH]c1=O` [Compound 27], the IC50 at bovine cardiac myosin (setting [3]) and at bovine cardiac myosin (setting [4]) was under 1000 nM in each case. Further, the inhibition at 0.3 µM in test [1] lay within 33 to 66%.

In the case of `COc1cccc([C@H](C)Nc2cc(=O)n(C3CCOCC3)c(=O)[nH]2)c1` [Compound 10, (S)-6-((1-(3-methoxyphenyl)ethyl)amino)-3-(tetrahydro-2H-pyran-4-yl)pyrimidine-2,4(1H,3H)-dione], the IC50 on bovine cardiac myosin (setting [4]) was under 1000 nM.

As to `Cc1cccc([C@H](C)Nc2cc(=O)n(C(C)C)c(=O)[nH]2)c1` [Compound 50, (S)-3-isopropyl-6-((1-(m-tolyl)ethyl)amino)pyrimidine-2,4(1H,3H)-dione], the IC50 on bovine cardiac myosin (setting [4]) was under 1000 nM.

Take `CC(C)n1c(=O)cc(N[C@@H](C)c2cccc(C(F)(F)F)c2)[nH]c1=O` [Compound 55, (S)-3-isopropyl-6-((1-(3-(trifluoromethyl)phenyl)ethyl)amino) pyrimidine-2,4(1H,3H)-dione]: at bovine cardiac myosin (setting [4]), the IC50 was under 1000 nM.

For `CCCn1c(=O)cc(N[C@@H](C)c2ccccc2)[nH]c1=O` [Compound 48, (S)-6-((1-phenylethyl)amino)-3-propylpyrimidine-2,4(1H,3H)-dione], the IC50 on bovine cardiac myosin (setting [3]) and at bovine cardiac myosin (setting [4]) was 1000 to 15000 nM each time. Moreover, the “% Reduction in Fractional Shortening 3 h post-dose” value in test [2] is on record as “+++ (+++ presents a relative change in fractional shortening greater than 30%)”.

For the compound `CC[C@H](C)n1c(=O)cc(N[C@@H](C)c2ccc(F)cc2)[nH]c1=O` [Compound 135], the IC50 at bovine cardiac myosin (setting [3]) is under 1000 nM.

In the case of `C[C@H](Nc1cc(=O)n(CC2CC2)c(=O)[nH]1)c1cccc(Cl)c1` [Compound 127], the IC50 on bovine cardiac myosin (setting [3]) was under 1000 nM.

As for `CCC(CC)n1c(=O)cc(N[C@@H](C)c2ccccc2)[nH]c1=O` [Compound 83], the IC50 on bovine cardiac myosin (setting [4]) is under 1000 nM.

Regarding `CCn1c(=O)cc(N[C@@H](C)c2cccc(C(F)(F)F)c2)[nH]c1=O` [Compound 124], the IC50 at bovine cardiac myosin (setting [3]) is under 1000 nM.

Take `CC(C)n1c(=O)cc(N[C@@H](C)c2ccc(O)cc2)[nH]c1=O` [Compound 63, (S)-6-((1-(4-hydroxyphenyl)ethyl)amino)-3-isopropylpyrimidine-2,4(1H,3H)-dione]: at bovine cardiac myosin (setting [3]), the IC50 is under 1000 nM.

As for `C[C@H](Nc1cc(=O)n(CC(F)(F)F)c(=O)[nH]1)c1ccc2c(c1)OCO2` [Compound 67, (S)-6-((1-(benzo[d][1,3]dioxol-5-yl)ethyl)amino)-3-(2,2,2-trifluoroethyl)pyrimidine-2,4(1H,3H)-dione], the IC50 at bovine cardiac myosin (setting [3]) was under 1000 nM. The compound further gave an inhibition at 1 µM in test [1] of over 66%.

Regarding `CC(C)n1c(=O)[nH]c(N[C@@H](C)c2cccc(F)c2)c(F)c1=O` [Compound 32], on bovine cardiac myosin (setting [4]), the IC50 is under 1000 nM.

Take `CC[C@H](Nc1cc(=O)n(C(C)C)c(=O)[nH]1)c1ccccc1` [Compound 24]: the IC50 on bovine cardiac myosin (setting [4]) was under 1000 nM.

Take `C[C@H](Nc1cc(=O)n([C@@H](C)C(F)(F)F)c(=O)[nH]1)c1ccccc1` [Compound 95]: the IC50 at bovine cardiac myosin (setting [3]) and on bovine cardiac myosin (setting [4]) was under 1000 nM throughout.

On to `CC(C)n1c(=O)cc(N[C@@H](CO)c2ccccc2)[nH]c1=O` [Compound 93], for which the IC50 on bovine cardiac myosin (setting [3]) is 1000 to 15000 nM; at bovine cardiac myosin (setting [4]), under 1000 nM.
